# Measured values as given in patent US7008905B2, “Method of combating undesired plant growth on cereals” (BASF Aktiengesellschaft, priority 2000, dated 2006).
# Columns and labels:
# Type in all cases: in vivo
# Galium aparine [1] = experiment: Pre-emergence test, weed control; conditions: 3 weeks after treatment, rating 0-100 (100=death), Table 1
# How it was run: (§1)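 Pre-emergence soil spray on recently sown prepared horticultural loam; dose 15/30/60/120/240 g a.i./ha, 900 l/ha. Formulation: acetone + 0.4% w/w alkylphenol-EO condensate, water-diluted. Readout: visual score at 3 wk, 0 (untreated) to 100 (dead).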
# Lolium perenne = experiment: Pre-emergence test, weed control; conditions: 3 weeks after treatment, rating 0-100 (100=death), Table 1
# How it was run: as §1
# Veronica persica = experiment: Pre-emergence test, weed control; conditions: 3 weeks after treatment, rating 0-100 (100=death), Table 1
# How it was run: as §1
# Setaria viridis [2] = experiment: Pre-emergence test, weed control; conditions: 3 weeks after treatment, rating 0-100 (100=death), Table 1
# How it was run: as §1
# Matricaria inodora [3] = experiment: Pre-emergence test, weed control; conditions: 3 weeks after treatment, rating 0-100 (100=death), Table 1
# How it was run: as §1
# Apera spica-venti = experiment: Pre-emergence test, weed control; conditions: 3 weeks after treatment, rating 0-100 (100=death), Table 1
# How it was run: as §1
# wheat = experiment: Post-emergence test, tolerance in wheat; conditions: post-emergence
# Description: (§2) These acetone solutions are diluted with water and the resulting formulations applied at dosage levels equivalent of about 0.030 to 0.240 kg per hectare of test compound per pot. After spraying the plants are placed an greenhouse benches and are cared for in the usual manner, commensurate with conventional greenhouse practices. From 2 to 4 weeks after treatment, the seedling plants are examined and rated according to the rating system provided above. A rating 0 indicates growth as untreated control, a rating 100 indicates death.
# [4] = test system: Triticum aestivum variety “Monopol”; experiment: Post-emergence test, selectivity; conditions: 2–4 weeks after treatment, rating 0-100 (100=death), Table 6
# Description: as §2
# [5] = test system: Triticum aestivum variety “Kanzler”; experiment: Post-emergence test, selectivity; conditions: 2–4 weeks after treatment, rating 0-100 (100=death), Table 6
# Description: as §2
# HORVW = experiment: Pre-emergence test, selectivity; conditions: 3 weeks after treatment, rating 0-100 (100=death), Table 2
# How it was run: as §1
# [6] = test system: Triticum aestivum variety “Monopol”; experiment: Pre-emergence test, selectivity; conditions: 3 weeks after treatment, rating 0-100 (100=death), Table 2
# How it was run: as §1
# [7] = test system: Triticum aestivum variety “Kanzler”; experiment: Pre-emergence test, selectivity; conditions: 3 weeks after treatment, rating 0-100 (100=death), Table 2
# How it was run: as §1
# [8] = test system: Hordeum vulgare variety “Mammut”; experiment: Pre-emergence test, selectivity; conditions: 3 weeks after treatment, rating 0-100 (100=death), Table 2
# How it was run: as §1
# Stellaria media = experiment: Post-emergence test, weed control; conditions: 2–4 weeks after treatment, rating 0-100 (100=death), Table 5
# Description: as §2
# Galium aparine [9] = experiment: Post-emergence test, weed control; conditions: 2–4 weeks after treatment, rating 0-100 (100=death), Table 5
# Description: as §2
# VIOAR = experiment: Post-emergence test, weed control; conditions: 2–4 weeks after treatment, rating 0-100 (100=death), Table 5
# Description: as §2
# Setaria viridis [10] = experiment: Post-emergence test, weed control; conditions: 2–4 weeks after treatment, rating 0-100 (100=death), Table 5
# Description: as §2
# Matricaria inodora [11] = experiment: Post-emergence test, weed control; conditions: 2–4 weeks after treatment, rating 0-100 (100=death), Table 5
# Description: as §2
# Lamium purpureum = experiment: Post-emergence test, weed control; conditions: 2–4 weeks after treatment, rating 0-100 (100=death), Table 5
# Description: as §2
# Polygonum convolvulus = experiment: Post-emergence test, weed control; conditions: 2–4 weeks after treatment, rating 0-100 (100=death), Table 5
# Description: as §2
smiles,measurement,setting,value
"FC(F)(F)c1ccc(-c2nccc(Oc3cccc(C(F)(F)F)c3)n2)cc1 [TTP, 4-(3-trifluoromethylphenoxy)-2-(4-trifluoromethyl-phenyl)-pyrimidine]",GALAP weed control rating,Galium aparine [1]; 0.015 kg/ha,5
same,GALAP weed control rating,Galium aparine [1]; 0.030 kg/ha,30
same,GALAP weed control rating,Galium aparine [1]; 0.060 kg/ha,50
same,GALAP weed control rating,Galium aparine [1]; 0.120 kg/ha,75
same,GALAP weed control rating,Galium aparine [1]; 0.240 kg/ha,93
same,LOLPE weed control rating,Lolium perenne; 0.015 kg/ha,70
same,LOLPE weed control rating,Lolium perenne; 0.030 kg/ha,99
same,LOLPE weed control rating,Lolium perenne; 0.060 kg/ha,99
same,LOLPE weed control rating,Lolium perenne; 0.120 kg/ha,99
same,LOLPE weed control rating,Lolium perenne; 0.240 kg/ha,100
same,VERPE weed control rating,Veronica persica; 0.015 kg/ha,100
same,VERPE weed control rating,Veronica persica; 0.030 kg/ha,100
same,VERPE weed control rating,Veronica persica; 0.060 kg/ha,100
same,VERPE weed control rating,Veronica persica; 0.120 kg/ha,100
same,VERPE weed control rating,Veronica persica; 0.240 kg/ha,100
same,SETVI weed control rating,Setaria viridis [2]; 0.015 kg/ha,100
same,SETVI weed control rating,Setaria viridis [2]; 0.030 kg/ha,100
same,SETVI weed control rating,Setaria viridis [2]; 0.060 kg/ha,100
same,SETVI weed control rating,Setaria viridis [2]; 0.120 kg/ha,100
same,SETVI weed control rating,Setaria viridis [2]; 0.240 kg/ha,100
same,MATIN weed control rating,Matricaria inodora [3]; 0.015 kg/ha,98
same,MATIN weed control rating,Matricaria inodora [3]; 0.030 kg/ha,99
same,MATIN weed control rating,Matricaria inodora [3]; 0.060 kg/ha,100
same,MATIN weed control rating,Matricaria inodora [3]; 0.120 kg/ha,100
same,MATIN weed control rating,Matricaria inodora [3]; 0.240 kg/ha,100
same,APESV weed control rating,Apera spica-venti; 0.015 kg/ha,100
same,APESV weed control rating,Apera spica-venti; 0.030 kg/ha,100
same,APESV weed control rating,Apera spica-venti; 0.060 kg/ha,100
same,APESV weed control rating,Apera spica-venti; 0.120 kg/ha,100
same,APESV weed control rating,Apera spica-venti; 0.240 kg/ha,100
same,maximum tolerated dose in wheat / dose at which sufficiently selective in wheat,wheat,240 g/ha
same,TRZAWM rating (Selectivity),[4]; 0.03 kg/ha,1
same,TRZAWM rating (Selectivity),[4]; 0.06 kg/ha,8
same,TRZAWM rating (Selectivity),[4]; 0.12 kg/ha,8
same,TRZAWM rating (Selectivity),[4]; 0.24 kg/ha,12
same,TRZAWK rating (Selectivity),[5]; 0.03 kg/ha,2
same,TRZAWK rating (Selectivity),[5]; 0.06 kg/ha,8
same,TRZAWK rating (Selectivity),[5]; 0.12 kg/ha,8
same,TRZAWK rating (Selectivity),[5]; 0.24 kg/ha,15
same,HORVW rating (Selectivity),HORVW; 0.015 kg/ha,10
same,HORVW rating (Selectivity),HORVW; 0.030 kg/ha,25
same,HORVW rating (Selectivity),HORVW; 0.060 kg/ha,30
same,HORVW rating (Selectivity),HORVW; 0.120 kg/ha,50
same,HORVW rating (Selectivity),HORVW; 0.240 kg/ha,55
same,TRZAWM rating (Selectivity),[6]; 0.060 kg/ha,1
same,TRZAWM rating (Selectivity),[6]; 0.120 kg/ha,5
same,TRZAWM rating (Selectivity),[6]; 0.240 kg/ha,15
same,TRZAWK rating (Selectivity),[7]; 0.120 kg/ha,3
same,TRZAWK rating (Selectivity),[7]; 0.240 kg/ha,10
same,HORVWM rating (Selectivity),[8]; 0.015 kg/ha,5
same,HORVWM rating (Selectivity),[8]; 0.030 kg/ha,22
same,HORVWM rating (Selectivity),[8]; 0.060 kg/ha,30
same,HORVWM rating (Selectivity),[8]; 0.120 kg/ha,40
same,HORVWM rating (Selectivity),[8]; 0.240 kg/ha,45
same,STEME weed control rating,Stellaria media; 0.030 kg/ha,50
same,STEME weed control rating,Stellaria media; 0.060 kg/ha,60
same,STEME weed control rating,Stellaria media; 0.120 kg/ha,70
same,STEME weed control rating,Stellaria media; 0.240 kg/ha,90
same,GALAP weed control rating,Galium aparine [9]; 0.030 kg/ha,60
same,GALAP weed control rating,Galium aparine [9]; 0.060 kg/ha,97
same,GALAP weed control rating,Galium aparine [9]; 0.120 kg/ha,80
same,GALAP weed control rating,Galium aparine [9]; 0.240 kg/ha,93
same,VIOAR weed control rating,VIOAR; 0.030 kg/ha,90
same,VIOAR weed control rating,VIOAR; 0.060 kg/ha,92
same,VIOAR weed control rating,VIOAR; 0.120 kg/ha,92
same,VIOAR weed control rating,VIOAR; 0.240 kg/ha,95
same,SETVI weed control rating,Setaria viridis [10]; 0.030 kg/ha,93
same,SETVI weed control rating,Setaria viridis [10]; 0.060 kg/ha,97
same,SETVI weed control rating,Setaria viridis [10]; 0.120 kg/ha,97
same,SETVI weed control rating,Setaria viridis [10]; 0.240 kg/ha,100
same,MATIN weed control rating,Matricaria inodora [11]; 0.030 kg/ha,50
same,MATIN weed control rating,Matricaria inodora [11]; 0.060 kg/ha,90
same,MATIN weed control rating,Matricaria inodora [11]; 0.120 kg/ha,75
same,MATIN weed control rating,Matricaria inodora [11]; 0.240 kg/ha,90
same,LAMPU weed control rating,Lamium purpureum; 0.030 kg/ha,85
same,LAMPU weed control rating,Lamium purpureum; 0.060 kg/ha,75
same,LAMPU weed control rating,Lamium purpureum; 0.120 kg/ha,92
same,LAMPU weed control rating,Lamium purpureum; 0.240 kg/ha,93
same,POLCO weed control rating,Polygonum convolvulus; 0.030 kg/ha,10
same,POLCO weed control rating,Polygonum convolvulus; 0.060 kg/ha,60
same,POLCO weed control rating,Polygonum convolvulus; 0.120 kg/ha,35
same,POLCO weed control rating,Polygonum convolvulus; 0.240 kg/ha,90
